Experimental data: patent publication US11090410B2 (priority 2011, dated 2021)
“Also recorded” adds a separate entry of the source. Where two headings read alike, the source gives them in different places.

Test system: acetylcholine receptor clustering in C2C12 mouse myoblast cell line
Type: cell-based
Conditions: for acetylcholine receptor clustering behavior: C2C12 cells on fibrin hydrogels, 5 days of treatment or beyond

## beads covalently linked to agrin: polystyrene microparticles with agrin linked to the surface using EDAC/sulfo-NHS covalent crosslinking chemistry
  acetylcholine receptor clustering behavior: induction of clustering behavior; also recorded: Clustering behavior was verified at areas of contact
Listed as agrin-delivering microparticles
  acetylcholine receptor clustering behavior: formation of AChR clusters
e.g., 5 or more days
  agrin delivery over longer time periods: enabled agrin delivery over longer time periods
